Experimental data reported in ChEMBL document CHEMBL1201862, “PubChem BioAssay data set” (2004).
Calls of active or inactive are those of the source.

How the values were obtained:
Trypsin = Trypsin (Sus scrofa, UniProt P00761); assay: porcine trypsin inhibitors, dose response, selectivity assay for Rce1 protease inhibitor project, biochemical, quenched peptide fluorescence, cherry-pick (AID 488789)
CAAX prenyl protease 1 = CAAX prenyl protease 1 (Saccharomyces cerevisiae S288c, UniProt P47154); assay: Ste24 protease inhibitors, dose response, biochemical, S. cerevisiae, plate reader, cherry-pick (AID 488815)
[1] = molecular target: T1, Histone-lysine N-methyltransferase NSD2 (Homo sapiens, UniProt O96028); format: biochemical
T1 sequence (O96028 whole entry): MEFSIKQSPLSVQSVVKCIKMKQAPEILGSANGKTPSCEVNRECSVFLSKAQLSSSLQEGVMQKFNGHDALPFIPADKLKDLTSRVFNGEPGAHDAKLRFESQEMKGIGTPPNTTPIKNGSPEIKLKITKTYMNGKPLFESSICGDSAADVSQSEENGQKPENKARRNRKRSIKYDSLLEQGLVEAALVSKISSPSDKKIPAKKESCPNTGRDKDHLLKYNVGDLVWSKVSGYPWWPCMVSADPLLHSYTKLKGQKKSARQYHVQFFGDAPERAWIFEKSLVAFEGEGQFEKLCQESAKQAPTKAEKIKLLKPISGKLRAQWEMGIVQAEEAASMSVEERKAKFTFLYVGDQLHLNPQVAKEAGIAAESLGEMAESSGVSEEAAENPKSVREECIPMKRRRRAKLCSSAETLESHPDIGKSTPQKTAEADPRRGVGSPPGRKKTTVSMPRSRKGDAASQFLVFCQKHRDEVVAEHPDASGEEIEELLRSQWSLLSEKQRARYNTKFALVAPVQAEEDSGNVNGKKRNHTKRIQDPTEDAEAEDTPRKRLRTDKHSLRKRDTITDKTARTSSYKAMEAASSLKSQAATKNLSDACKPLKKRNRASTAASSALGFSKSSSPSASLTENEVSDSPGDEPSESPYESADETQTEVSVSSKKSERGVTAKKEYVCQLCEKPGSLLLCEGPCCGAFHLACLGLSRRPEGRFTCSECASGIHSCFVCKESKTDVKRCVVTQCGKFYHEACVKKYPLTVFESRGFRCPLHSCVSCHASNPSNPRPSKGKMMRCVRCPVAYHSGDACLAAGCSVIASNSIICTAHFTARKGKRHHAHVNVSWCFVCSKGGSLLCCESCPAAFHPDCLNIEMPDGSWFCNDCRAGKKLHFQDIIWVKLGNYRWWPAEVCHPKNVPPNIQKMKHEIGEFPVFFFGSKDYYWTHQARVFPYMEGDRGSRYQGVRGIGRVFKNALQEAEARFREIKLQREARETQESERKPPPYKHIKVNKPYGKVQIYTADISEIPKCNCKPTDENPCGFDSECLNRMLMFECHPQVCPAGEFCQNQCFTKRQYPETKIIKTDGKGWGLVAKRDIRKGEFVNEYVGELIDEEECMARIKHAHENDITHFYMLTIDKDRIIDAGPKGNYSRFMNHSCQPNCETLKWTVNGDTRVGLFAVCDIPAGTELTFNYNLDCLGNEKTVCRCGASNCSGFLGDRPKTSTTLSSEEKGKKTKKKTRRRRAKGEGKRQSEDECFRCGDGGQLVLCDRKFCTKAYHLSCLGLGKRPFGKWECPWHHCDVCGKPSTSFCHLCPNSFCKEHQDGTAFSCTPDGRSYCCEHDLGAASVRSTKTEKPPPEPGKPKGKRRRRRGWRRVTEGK

[2] = molecular target: T2, Tyrosine-protein phosphatase non-receptor type 7 (Homo sapiens, UniProt P35236); format: functional
T2 sequence (P35236 whole entry): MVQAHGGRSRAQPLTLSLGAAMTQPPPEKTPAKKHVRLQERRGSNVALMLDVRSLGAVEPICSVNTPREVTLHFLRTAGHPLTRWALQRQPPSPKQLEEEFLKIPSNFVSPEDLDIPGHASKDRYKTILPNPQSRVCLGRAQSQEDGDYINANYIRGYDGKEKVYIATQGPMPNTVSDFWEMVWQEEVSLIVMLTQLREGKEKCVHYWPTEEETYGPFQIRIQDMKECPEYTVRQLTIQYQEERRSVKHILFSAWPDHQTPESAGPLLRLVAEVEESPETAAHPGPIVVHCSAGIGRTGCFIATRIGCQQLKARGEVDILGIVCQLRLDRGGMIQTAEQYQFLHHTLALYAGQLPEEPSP

[3] = molecular target: Heat shock 70 kDa protein 1A (Homo sapiens, UniProt P0DMV8); assay: Hsp70 inhibitors, SAR follow-up, biochemical, fluorescence polarization (AID 1072)
[4] = molecular target: Heat shock cognate 71 kDa protein (Homo sapiens, UniProt P11142); assay: In Vitro Hsc70 Dose Response Fluorescence Polarization Assay. [Related pubchem assays: 1072 ]
[5] = molecular target: T3, Dual specificity protein phosphatase 6 (Rattus norvegicus, UniProt Q64346)
T3 sequence (Q64346 whole entry): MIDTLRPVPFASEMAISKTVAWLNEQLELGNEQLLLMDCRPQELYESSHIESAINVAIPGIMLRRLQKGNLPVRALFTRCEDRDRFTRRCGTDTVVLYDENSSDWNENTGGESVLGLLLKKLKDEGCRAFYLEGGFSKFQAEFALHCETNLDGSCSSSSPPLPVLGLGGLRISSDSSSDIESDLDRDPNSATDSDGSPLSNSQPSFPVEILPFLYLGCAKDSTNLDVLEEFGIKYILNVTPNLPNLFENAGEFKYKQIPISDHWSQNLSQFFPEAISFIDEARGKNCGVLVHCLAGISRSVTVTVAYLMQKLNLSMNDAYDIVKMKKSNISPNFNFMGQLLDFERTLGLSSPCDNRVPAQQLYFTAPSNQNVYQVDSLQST

[6] = molecular target: Glyceraldehyde-3-phosphate dehydrogenase (Homo sapiens, UniProt P04406)
[7] = molecular target: T3, Dual specificity protein phosphatase 6; format: functional
[8] = LGR2 antagonists, dose response, cell-based, HEK293, CRE-luciferase reporter, cherry pick, set 2 (AID 743343); format: functional;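 note: transfected cells were stimulated with diluted bursicon conditioned medium after compound addition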
[9] = A549 cell cytotoxicity, dose response, cytotoxicity control, plate reader, cherry-pick, antagonist series (AID 743412); format: functional, cell-based
[10] = molecular target: T4, Microphthalmia-associated transcription factor (Homo sapiens, UniProt O75030); assay: TRPM1 promoter luciferase signal decrease, dose response, MITF inhibitor project, cell-based, SK-MEL-5, cherry-picked, set 3 (AID 493073); format: functional
T4 sequence (O75030 whole entry): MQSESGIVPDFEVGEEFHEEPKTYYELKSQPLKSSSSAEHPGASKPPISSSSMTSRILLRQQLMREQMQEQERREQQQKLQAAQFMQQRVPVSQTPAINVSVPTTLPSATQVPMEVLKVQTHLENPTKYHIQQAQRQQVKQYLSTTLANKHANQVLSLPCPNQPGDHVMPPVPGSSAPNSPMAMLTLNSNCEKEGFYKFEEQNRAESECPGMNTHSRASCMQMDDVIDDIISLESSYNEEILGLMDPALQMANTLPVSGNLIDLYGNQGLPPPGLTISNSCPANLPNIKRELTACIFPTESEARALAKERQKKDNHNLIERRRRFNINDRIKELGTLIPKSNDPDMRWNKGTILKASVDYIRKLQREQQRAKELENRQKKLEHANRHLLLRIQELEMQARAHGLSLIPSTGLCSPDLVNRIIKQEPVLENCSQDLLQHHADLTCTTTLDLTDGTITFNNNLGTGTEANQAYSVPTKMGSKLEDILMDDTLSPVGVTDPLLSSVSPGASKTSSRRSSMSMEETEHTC

A-375 = assay: MITF: Counter assay: A375 proliferation Measured in Cell-Based System Using Plate Reader - 2084-03_Inhibitor_Dose_DryPowder_Activity. [Related pubchem assays (depositor defined):AID488944]; format: functional; conditions: Homo sapiens
[11] = HepG2 cell cytotoxicity, dose response, cytotoxicity control, plate reader, cherry-pick, antagonist series (AID 743416); format: functional, cell-based
[12] = MC4R antagonists, dose response, counter-screen for LGR2 antagonist project, cell-based, plate reader, cherry pick (AID 743444); format: functional;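 note: transfected HEK 293 cells stimulated with alpha-MSH peptide; potency of inhibitors of the alpha-MSH evoked signal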
[13] = HEK293 cell cytotoxicity, dose response, cytotoxicity control, plate reader, cherry-picked samples (AID 743446); format: functional, cell-based
[14] = inhibitors of intracellular T. cruzi replication, confirmation, NIH3T3 host cells, beta-gal luminescence (AID 2044); format: functional, cell-based;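 note: intracellular parasites grown in NIH/3T3 mouse fibroblasts as host cells; luminescent beta-galactosidase reporter signal from transgenic T. cruzi replicating inside host cells; inhibitors lower the luminescence signal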
[15] = cytotoxicity toward NIH3T3 fibroblasts, dose response, counter-screen, cell-based, ATP luminescence, mouse fibroblasts (AID 2010); format: functional;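 note: cells exposed to compound for about 90 hours before reading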
[16] = microbe, parasite or virus in culture; format: functional; conditions: Mycobacterium tuberculosis
[17] = Vero E6 cell cytotoxicity, dose response, cytotoxicity control for non-replicating M. tuberculosis project, secondary assay (AID 492998); format: functional, VeroE6; conditions: Vero C1008
[18] = THP-1 cell cytotoxicity, dose response, cytotoxicity control for non-replicating M. tuberculosis project (AID 489025); format: functional
[19] = HepG2 cell cytotoxicity, dose response, cytotoxicity control for non-replicating M. tuberculosis project (AID 489018); format: functional; conditions: Mycobacterium tuberculosis
[20] = molecular target: Dual specificity protein phosphatase 3 (Homo sapiens, UniProt P51452); assay: SAR VHR1 Fluorescent Assay for In Vitro dose response studies Set 3. [Related pubchem assays (depositor defined):AID1654, AID1661, AID1878]; format: functional
Cytochrome P450 2C9 = Cytochrome P450 2C9 (Homo sapiens, UniProt P11712)
Cytochrome P450 2D6 = Cytochrome P450 2D6 (Homo sapiens, UniProt P10635);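 note: CYP2D6 member of a cytochrome P450 panel assay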
Cytochrome P450 3A4 = Cytochrome P450 3A4 (Homo sapiens, UniProt P08684);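 note: CYP3A4 tested as one member of a cytochrome P450 panel screen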
Escherichia coli = assay: microbe, parasite or virus in culture
Streptococcus = assay: Group A Streptococcus viability loss, dose response, counter-screen for streptokinase expression inhibitor project, luminescence, BacTiterGlo (AID 1915); format: functional, organism-based;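 note: potency for reduction of bacterial viability or growth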
[21] = test system: Streptococcus sp. 'group A'; assay: growth inhibition of control SK(-) GAS strain, dose response, counter-screen for streptokinase expression inhibitor project, luminescence, kanamycin, BacTiterGlo, confirmation (AID 1900); format: functional, organism-based
Streptokinase A = molecular target: T5, Streptokinase A (Streptococcus pyogenes serotype M1, UniProt P10520); assay: S. pyogenes streptokinase expression inhibitors, potency, dose response, plasminogen activation absorbance, OD405 (AID 1914); format: functional, Streptococcus pyogenes M1 GAS;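 note: secreted streptokinase activity via plasminogen activation per viability signal from cell pellet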
T5 sequence (P10520 whole entry): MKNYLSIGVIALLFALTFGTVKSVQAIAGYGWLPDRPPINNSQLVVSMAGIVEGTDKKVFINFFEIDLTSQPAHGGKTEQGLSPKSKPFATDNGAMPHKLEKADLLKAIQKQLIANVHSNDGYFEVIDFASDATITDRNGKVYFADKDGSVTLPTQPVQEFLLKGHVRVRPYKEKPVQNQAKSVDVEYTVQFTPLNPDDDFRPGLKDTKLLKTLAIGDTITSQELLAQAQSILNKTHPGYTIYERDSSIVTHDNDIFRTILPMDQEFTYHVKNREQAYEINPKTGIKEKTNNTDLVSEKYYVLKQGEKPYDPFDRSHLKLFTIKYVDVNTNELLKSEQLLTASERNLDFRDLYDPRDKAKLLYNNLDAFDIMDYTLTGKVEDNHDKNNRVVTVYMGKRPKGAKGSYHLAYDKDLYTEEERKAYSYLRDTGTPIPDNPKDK

Dual specificity protein phosphatase 3, sequence (P51452 whole entry): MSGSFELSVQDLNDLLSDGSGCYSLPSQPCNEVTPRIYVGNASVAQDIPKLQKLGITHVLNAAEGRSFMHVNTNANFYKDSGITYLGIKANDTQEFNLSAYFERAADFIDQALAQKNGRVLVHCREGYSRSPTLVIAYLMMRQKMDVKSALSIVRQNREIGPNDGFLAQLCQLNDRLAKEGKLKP
Heat shock 70 kDa protein 1A, sequence (P0DMV8 whole entry): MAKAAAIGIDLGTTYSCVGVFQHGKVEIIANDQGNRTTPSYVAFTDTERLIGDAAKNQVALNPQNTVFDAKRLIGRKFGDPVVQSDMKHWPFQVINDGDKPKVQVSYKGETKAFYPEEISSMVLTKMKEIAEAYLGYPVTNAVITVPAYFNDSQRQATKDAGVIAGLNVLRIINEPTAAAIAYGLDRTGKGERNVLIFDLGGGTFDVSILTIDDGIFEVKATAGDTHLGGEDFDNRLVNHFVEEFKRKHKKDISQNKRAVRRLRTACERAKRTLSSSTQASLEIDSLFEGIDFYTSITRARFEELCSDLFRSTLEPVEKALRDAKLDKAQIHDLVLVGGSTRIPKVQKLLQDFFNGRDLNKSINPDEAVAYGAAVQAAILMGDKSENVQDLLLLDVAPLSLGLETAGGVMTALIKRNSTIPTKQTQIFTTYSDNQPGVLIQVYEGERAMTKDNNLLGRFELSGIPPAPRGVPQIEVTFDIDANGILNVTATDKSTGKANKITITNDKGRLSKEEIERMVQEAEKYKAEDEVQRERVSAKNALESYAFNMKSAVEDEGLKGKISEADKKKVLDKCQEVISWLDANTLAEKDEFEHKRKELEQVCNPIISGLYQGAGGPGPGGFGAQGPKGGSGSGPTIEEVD
Trypsin, sequence (P00761 whole entry): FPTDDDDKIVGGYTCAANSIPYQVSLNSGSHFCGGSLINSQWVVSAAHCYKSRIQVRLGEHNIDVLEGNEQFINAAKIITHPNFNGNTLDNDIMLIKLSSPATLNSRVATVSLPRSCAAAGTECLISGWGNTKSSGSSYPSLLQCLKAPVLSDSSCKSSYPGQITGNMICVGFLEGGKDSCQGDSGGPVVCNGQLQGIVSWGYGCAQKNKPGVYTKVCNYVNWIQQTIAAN
Glyceraldehyde-3-phosphate dehydrogenase, sequence (P04406 whole entry): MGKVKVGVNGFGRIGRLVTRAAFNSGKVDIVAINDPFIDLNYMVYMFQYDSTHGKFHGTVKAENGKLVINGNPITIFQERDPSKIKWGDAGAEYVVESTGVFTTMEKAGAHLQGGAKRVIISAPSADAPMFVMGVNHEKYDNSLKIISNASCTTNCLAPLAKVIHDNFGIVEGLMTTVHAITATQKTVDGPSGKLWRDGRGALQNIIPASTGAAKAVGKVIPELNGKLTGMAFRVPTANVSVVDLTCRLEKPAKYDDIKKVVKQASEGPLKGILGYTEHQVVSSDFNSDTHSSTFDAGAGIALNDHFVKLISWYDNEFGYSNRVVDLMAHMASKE
Cytochrome P450 2D6, sequence (P10635 whole entry): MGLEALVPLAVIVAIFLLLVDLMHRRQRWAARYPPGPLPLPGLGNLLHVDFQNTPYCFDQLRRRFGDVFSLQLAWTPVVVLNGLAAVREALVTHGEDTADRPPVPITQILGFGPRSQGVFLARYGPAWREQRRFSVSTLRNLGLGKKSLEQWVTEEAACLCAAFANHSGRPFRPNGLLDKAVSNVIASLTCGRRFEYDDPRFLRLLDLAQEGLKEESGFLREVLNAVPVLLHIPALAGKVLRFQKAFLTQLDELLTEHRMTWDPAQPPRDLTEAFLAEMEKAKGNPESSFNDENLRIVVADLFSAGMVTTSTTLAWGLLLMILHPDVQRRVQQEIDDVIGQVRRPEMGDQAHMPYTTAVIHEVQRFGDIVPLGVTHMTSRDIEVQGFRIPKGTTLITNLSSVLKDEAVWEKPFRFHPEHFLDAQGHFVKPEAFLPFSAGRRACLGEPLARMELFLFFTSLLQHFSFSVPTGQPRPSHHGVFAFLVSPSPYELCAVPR
Heat shock cognate 71 kDa protein, sequence (P11142 whole entry): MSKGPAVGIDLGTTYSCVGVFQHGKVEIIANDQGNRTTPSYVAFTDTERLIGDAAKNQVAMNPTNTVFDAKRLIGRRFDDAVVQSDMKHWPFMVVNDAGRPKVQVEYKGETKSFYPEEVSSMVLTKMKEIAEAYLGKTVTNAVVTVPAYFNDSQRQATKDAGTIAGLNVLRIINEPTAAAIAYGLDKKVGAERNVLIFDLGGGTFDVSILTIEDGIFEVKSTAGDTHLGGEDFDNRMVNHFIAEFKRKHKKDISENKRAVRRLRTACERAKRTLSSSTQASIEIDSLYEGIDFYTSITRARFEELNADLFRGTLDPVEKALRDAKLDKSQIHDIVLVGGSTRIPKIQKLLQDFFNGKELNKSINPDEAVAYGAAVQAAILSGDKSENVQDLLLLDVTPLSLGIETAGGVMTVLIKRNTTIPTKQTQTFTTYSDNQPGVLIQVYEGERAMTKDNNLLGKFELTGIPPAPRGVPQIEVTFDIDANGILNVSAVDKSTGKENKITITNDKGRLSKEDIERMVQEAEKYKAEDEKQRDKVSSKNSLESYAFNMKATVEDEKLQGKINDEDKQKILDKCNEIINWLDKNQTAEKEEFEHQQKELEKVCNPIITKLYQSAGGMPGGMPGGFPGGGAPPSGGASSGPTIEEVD
Cytochrome P450 3A4, sequence (P08684 whole entry): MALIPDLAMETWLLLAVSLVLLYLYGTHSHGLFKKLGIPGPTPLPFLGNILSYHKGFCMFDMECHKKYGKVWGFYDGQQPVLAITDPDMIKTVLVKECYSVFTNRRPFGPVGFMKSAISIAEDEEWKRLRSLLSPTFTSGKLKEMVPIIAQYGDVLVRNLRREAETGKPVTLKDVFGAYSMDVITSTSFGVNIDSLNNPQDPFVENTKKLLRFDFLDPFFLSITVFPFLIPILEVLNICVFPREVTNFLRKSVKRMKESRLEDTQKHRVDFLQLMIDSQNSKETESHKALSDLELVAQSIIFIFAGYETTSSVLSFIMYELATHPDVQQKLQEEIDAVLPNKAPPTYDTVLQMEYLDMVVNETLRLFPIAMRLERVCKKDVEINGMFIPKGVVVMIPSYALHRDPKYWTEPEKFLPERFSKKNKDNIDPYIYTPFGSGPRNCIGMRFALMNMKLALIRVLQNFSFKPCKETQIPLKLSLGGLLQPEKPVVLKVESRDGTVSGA
Cytochrome P450 2C9, sequence (P11712 whole entry): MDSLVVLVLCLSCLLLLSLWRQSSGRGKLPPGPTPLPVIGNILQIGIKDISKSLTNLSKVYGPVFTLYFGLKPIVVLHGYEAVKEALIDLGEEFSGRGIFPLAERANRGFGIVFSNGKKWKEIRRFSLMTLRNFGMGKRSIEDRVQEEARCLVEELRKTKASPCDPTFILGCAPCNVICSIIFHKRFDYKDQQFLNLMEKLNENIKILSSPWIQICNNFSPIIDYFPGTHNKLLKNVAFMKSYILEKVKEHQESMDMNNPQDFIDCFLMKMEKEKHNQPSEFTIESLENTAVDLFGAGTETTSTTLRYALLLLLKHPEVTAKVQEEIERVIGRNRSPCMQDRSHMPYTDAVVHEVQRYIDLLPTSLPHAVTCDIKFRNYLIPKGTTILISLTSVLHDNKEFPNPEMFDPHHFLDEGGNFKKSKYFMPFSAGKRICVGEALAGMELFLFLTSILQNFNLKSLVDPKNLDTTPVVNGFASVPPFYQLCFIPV
CAAX prenyl protease 1, sequence (P47154 whole entry): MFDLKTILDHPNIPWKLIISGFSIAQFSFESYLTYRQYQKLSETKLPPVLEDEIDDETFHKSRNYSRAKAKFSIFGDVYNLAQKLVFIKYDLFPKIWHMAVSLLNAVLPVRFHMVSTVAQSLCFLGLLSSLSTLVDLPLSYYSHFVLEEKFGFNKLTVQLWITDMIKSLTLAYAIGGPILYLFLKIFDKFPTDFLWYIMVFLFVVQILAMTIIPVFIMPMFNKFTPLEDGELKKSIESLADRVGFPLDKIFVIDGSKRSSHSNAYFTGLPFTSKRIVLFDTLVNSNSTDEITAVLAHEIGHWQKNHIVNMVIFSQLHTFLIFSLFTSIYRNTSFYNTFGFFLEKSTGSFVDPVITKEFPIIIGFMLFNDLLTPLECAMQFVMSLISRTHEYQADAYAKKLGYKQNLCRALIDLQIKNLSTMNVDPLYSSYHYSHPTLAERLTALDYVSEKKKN

CCN(CC)CCCNc1cc(C)nc2cc(-c3cccs3)nn12
active: AC50 (Trypsin) 19.4 µM | AC50 (CAAX prenyl protease 1) 6.24 µM
inactive: AC50 [1] > 20 µM

CCOc1cc2c(c([N+](=O)[O-])c1)NC(C(=O)O)C1CC=CC21 (stereo not given)
inactive: IC50 [5] > 100 µM | IC50 [7] > 100 µM
> 100 µM (not active): IC50 [2] | IC50 [3] | IC50 [4] | IC50 [6]

Cc1ccccc1-c1nc(-c2ccccn2)no1
active: AC50 [8] 1.81 µM | AC50 [9] 12.9 µM | AC50 [10] 4.18 µM | AC50 (A-375) 14.8 µM | AC50 [11] 23 µM | AC50 [12] 1.8 µM | AC50 [13] 17.1 µM

COc1cccc2sc(Nc3nnc(-c4cccs4)o3)nc12
active: EC50 [14] 0.415 µM | EC50 [15] 2.96 µM | CC50 [16] 27.8 µM | CC50 [17] 11.1 µM | CC50 [18] 11.2 µM | CC50 [19] > 20 µM | IC50 [20] 15.6 µM

CCSc1nc(O)c2c3c(sc2n1)COC(C)(CC)C3 (stereo not given)
inconclusive: AC50 (Cytochrome P450 2C9) 2.82 µM | AC50 (Cytochrome P450 2D6) | AC50 (Cytochrome P450 3A4)

Cc1ccc(NC(=O)NCc2ccccn2)cc1Cl
active: AC50 (Escherichia coli) 343 µM
> 150 µM (not active): EC50 (Streptococcus) | EC50 [21] | EC50 (Streptokinase A)
